{"source": "patent US20100216875A1", "about": "“METHODS OF TREATING ALZHEIMER'S DISEASE” (priority 2006, published 2010)", "key": {"[1]": {"test_system": "brain and synaptosomal Aβ", "assay": "guinea pig brain and synaptosome Aβ by ELISA after icv infusion", "type": "in vivo", "conditions": "icv 0.15 mg/kg/day, 30 days", "text": "Guinea pig (gp) is a natural, non-transgenic model of human APP processing gpAPP is 98% homologous to human APP, contains the human wild-type β-secretase site, and gpAβ is identical to human Aβ. Brain synaptosome preparations are enriched with neuronal synapses which are the sites at which regulated secretion occurs and are an in vivo measure of regulated secretory secretion CTFβ is an APP fragment that results from p-secretase cleavage of APP and reflects in vivo β-secretase activity. […] E64d was icy administered into gp brains (0.15 mg/kg/day) for 7 or 30 days. […] In FIG. 5b, total synaptosomal Aβ is shown.\nCA074Me (0.15 mg/kg/day) was icy infused into gp brains with mini pumps. […] An equal reduction of Aβ40 and Aβ42 is consistent with the inhibitor affecting p-secretase activity\nAt the end of the treatment, the brains were isolated and extracted with guanidine hydrochloride and Aβ40 and Aβ42 levels were determined using ELISA.\nCathepsin B inhibitors were administered directly into the brain by icy infusion with minipumps in time course studies at different doses. Guinea pigs were infused with compounds using Alzet pumps (2.5 μl/hr, with compounds at 1 mg/ml in saline) for 7 and 30 days, and other times. This initial dose of compound was selected because E64d and CA074Me are effective at this dose. Each treatment group consisted of eight to ten guinea pigs, including the vehicle control group.\nAt the end of each experiment, animals were sacrificed and half the brain was taken for ELISA measurement of Aβ40 and Aβ42 levels. The other half was isolated for synaptosome preparations for ELISA measurement of Aβ40 and Aβ42 content in nerve terminals. Synaptosomes were prepared by homogenization in isotonic sucrose (320 mM), pH 7.4, 1 mM EDTA, 0.25 mM dithiothreitol, and 30 U/MI RNAse inhibitor. The homogenate was centrifuged at 1000×g for 10 minutes. The supernatant was loaded on a Sucrose-Percoll discontinuous gradient and centrifuged at 32,000×g for 5 minutes (80) Enriched synaptosomes were washed in PBS, and centrifuged at 12,000×g for 4 minutes. The supernatant was removed, and the synaptosome containing pellet was resuspended in 50% OptiPrep (Accurate Chemica. Westbury, N.Y.), loaded on an OptiPrep discontinuous flotation gradient (9, 12.5, 25, and 35%) and centrifuged at 10,000×g for 20 minutes. The synaptosomes were obtained at the […]\nFor quantitative analysis of Aβ peptides, an enzyme-linked immunosorbent assay (ELISA) was used to measure the levels of total Aβ, Aβtotal, Aβ40 and Aβ42 in the brains and synaptosomes of guinea pigs (Biosource International, Camarillo, Calif.) Aβtotal, Aβ40, Aβ42 was extracted from guinea pig brains or from synaptosomes by guanidine hydrochloride and quantified as described by the manufacturer. This assay extracted the total Aβ peptide from the brain (both soluble and aggregated). Tissue samples were homogenized in 5M guanidine buffer (5M guanidine HCl in 50 mM Tris-Cl, pH 8.3; Sigma-Aldrich, St. Louis, Mo.) at 1:10 w/v dilution. Homogenates were agitated at room temperature for 3-4 hours, then stored at −20° C. The day before running the ELISA, the tissue samples were diluted further 1:10 to provide a final guanidine concentration of 0.5M. These diluted homogenates were spun down at 14,000 rpm for 20 minutes at 4° C. and supernatants used for Aβ determination by ELISA (84-86). Brain and synaptosome extracts were assayed as diluted in 0.5M guanidine. In addition, Aβ40 and Aβ42 were assayed using ELISA using 6E10 as the capture antibody and Rb209 and Rb321 as reporter antibodies, respectively, for Aβ40 and Aβ42 (96)."}, "[2]": {"molecular_target": "aspartyl protease, BACE1 (Homo sapiens, UniProt P56817)", "sequence (P56817 46-501)": "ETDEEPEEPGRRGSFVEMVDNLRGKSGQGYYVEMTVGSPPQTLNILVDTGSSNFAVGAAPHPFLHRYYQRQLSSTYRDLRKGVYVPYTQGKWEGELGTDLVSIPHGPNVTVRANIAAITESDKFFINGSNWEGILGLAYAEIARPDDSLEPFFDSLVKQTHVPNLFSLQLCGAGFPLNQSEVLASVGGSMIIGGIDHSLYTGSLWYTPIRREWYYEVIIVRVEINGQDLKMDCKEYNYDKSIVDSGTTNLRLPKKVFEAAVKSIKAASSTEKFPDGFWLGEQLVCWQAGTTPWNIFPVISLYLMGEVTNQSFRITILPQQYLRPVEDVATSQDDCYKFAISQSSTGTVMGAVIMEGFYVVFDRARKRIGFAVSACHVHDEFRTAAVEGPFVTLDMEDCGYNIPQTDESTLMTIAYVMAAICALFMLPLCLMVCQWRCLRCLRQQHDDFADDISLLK", "assay": "effect on BACE1", "type": "biochemical"}, "[3]": {"molecular_target": "T1, cathepsin B (Homo sapiens, UniProt P07858)", "conditions": "reference (4); read-out: IC50 for cathepsin B inhibition; cited from earlier work"}, "[4]": {"test_system": "endogenous β-secretase activity in regulated secretory vesicles", "assay": "endogenous β-secretase activity in isolated regulated secretory vesicles, monitored with Z-Val-Lys-Met-MCA", "type": "biochemical, bovine", "experimental": "A high throughput screening (HTS) assay was developed to measure protease activity that cleaves the wild-type β-secretase cleavage site. The substrate Z-Val-Lys-Met-MCA mimics the wild-type β-secretase cleavage site upon cleavage between Met-MCA, which generates fluorescent MCA. The free MCA fluorescence provides sensitive and quantitative measurement of protease activity. This assay provides a rapid (30 minutes) and sensitive assay of activity for cleaving the wild-type β-secretase cleavage site of APP, expressed in majority of the AD population Specifically, the Z-Val-Lys-Met-MCA cleaving assay can be used to detect endogenous β-secretase activity in regulated secretory vesicles.\nIsolation of regulated secretory vesicles, also known as chromaffin vesicles, from adrenal medullary tissue (bovine) was conducted by sucrose density gradient purification, as described previously (54-56, 58). Briefly, fresh bovine adrenal medulla (from 40 glands) was gently homogenized by a polytron (Brinkmann) in 200-250 ml ice-cold 0.32 M sucrose. The homogenate was centrifuged at 1500 rpm in a GSA rotor (Sorval centrifuge) for 20 minutes at 4° C. The supernatant was collected and centrifuged at 8000 rpm in a GSA rotor for 20 minutes at 4° C. to obtain a pellet of chromaffin vesicles. The pellet was washed 3 times in 0.32 M sucrose. […]"}, "[5]": {"test_system": "Aβ40 production from endogenous APP in regulated secretory vesicles isolated from chromaffin cells", "assay": "Aβ production from endogenous APP in isolated regulated secretory vesicles", "type": "biochemical, bovine", "conditions": "inhibitor 10 μM", "experimental": "Regulated secretory vesicles isolated from chromaffin cells naturally produce Aβ from endogenous APP when incubated at 37° C. in vitro for several hours. These vesicles can be used as an in vitro screen for compounds that inhibit Aβ production. […] The effects of cathepsin B inhibitors, CA074 (10 μM, ♦) and CA074Me (10 μM, □), on the production of Aβ40 from endogenous APP in regulated secretory vesicles isolated from chromaffin cells was evaluated in time course studies. […] Each inhibitor was tested in triplicate; values represent x±sem (*statistically significant with p<0.05).\nCathepsin B compounds that were effective inhibitors of endogenous II-secretase activity were tested for inhibition of Aβ peptide production in regulated secretory vesicles. The effect of reversible cathepsin B compounds on production of Aβ40 and Aβ42 in isolated chromaffin vesicles was tested by incubating candidate inhibitors (at 10 μM) with lysed chromaffin vesicles under identical conditions as for the β-secretase assay for 8 hours. […] After incubation, Aβ40 and Aβ42 was measured by ELISA assays, as described for measurement of Aβ peptides in brain extracts. Each candidate inhibitor was assayed in triplicate."}, "[6]": {"molecular_target": "cathepsin B purified from secretory vesicles (Bos taurus, UniProt P07688)", "assay": "Z-Val-Lys-Met-MCA cleaving activity of purified cathepsin B", "conditions": "inhibitor 10 μM"}, "[7]": {"test_system": "brain Aβ", "conditions": "wild-type mice, icv 200 mg/kg/day; cited from earlier work"}, "[8]": {"molecular_target": "T1, cathepsin B", "assay": "recombinant cathepsin B β-secretase assay (Z-VKM-MCA)", "type": "biochemical", "parameters": "purchased", "conditions": "recombinant human cathepsin B (3.5 ng), Z-V-K-M-MCA substrate (100 μM); read-out: IC50 inhibitory concentration", "experimental": "Peptide structures that inhibit cathepsin B β-secretase activity were used to develop small molecule AD drugs. A library of dipeptide aldehydes were screened for an inhibitory effect on the cathepsin B β-secretase activity using recombinant human cathepsin B (3.5 ng) cleavage of the Z-V-K-M-MCA substrate (100 μM).\nThe recombinant cathepsin B β-secretase assay occurs in a solution (100 μl total volume) consisting of H2O (20 μl), Na-Acetate (50 mM, pH 5.0), NaCl (100 mM), Z-VKM-MCA (100 μM), GSH (10 mM), EDTA (1 mM), and recombinant human cathepsin B (3.5 ng) and 2DMSO (2%). A dipeptide aldehyde was added to such solutions in varying amounts to determine the IC50. The reagents were generally commercially available or, in the case of the dipeptide aldehydes, custom synthesized. The assay was incubated at 37° C. for 45 minutes and the fluorescence was read using a spectrophotometer (365/450 nm excitation/emission). Assays were run in duplicate. Compounds that inhibited cathepsin B by 80-100% (at 10 μM) underwent dose-response testing at […] to 10 μM to determine potency, measured as IC50 values (determined by non-linear regression a analysis using Graphpad Prism). Compounds with IC50 values in the nanomolar range, up to 100 nM, were selected for further study."}}, "note": "Read-outs that look alike come from different tables or passages of the source. Peptide text beside a SMILES is read from it. * marks the point of attachment. Cbz = O=C(OCc1ccccc1)*", "data": [{"smiles": "CC(=O)N[C@@H](CC(C)C)C(=O)N[C@H](C(=O)N[C@H](C=O)CCCCN)C(C)C", "note": "[Ac-LVK-CHO, acetyl-L-leucyl-L-valyl-L-lysinal] (Ac-Leu-Val-Lys-aldehyde)", "values": [{"measurement": "reduction of Aβ40 in brain extracts", "setting": "[1]", "value": "about 70%"}, {"measurement": "reduction of Aβ42 in brain extracts", "setting": "[1]", "value": "~60", "unit": "%"}, {"measurement": "effect on BACE1", "setting": "[2]", "value": "do not affect"}, {"measurement": "IC50", "setting": "[3]", "value": 0.004, "unit": "µM"}]}, {"smiles": "CCCNC(=O)[C@H]1O[C@@H]1C(=O)N[C@H](C(=O)N1CCC[C@H]1C(=O)O)[C@@H](C)CC", "note": "[CA074]", "values": [{"measurement": "inhibition of endogenous β-secretase activity in regulated secretory vesicles", "setting": "[4]; inhibitor 1 μM", "value": "completed inhibited"}, {"measurement": "effect on Aβ production in isolated regulated secretory vesicles", "setting": "[5]", "value": "block Aβ production"}]}, {"smiles": "CC(C)CCNC(=O)[C@H](CC(C)C)NC(=O)[C@H]1O[C@@H]1C(=O)O", "note": "[E64c]", "values": [{"measurement": "inhibition of endogenous β-secretase activity in regulated secretory vesicles", "setting": "[4]; inhibitor 10 μM", "value": "completed inhibited"}, {"measurement": "effect on Aβ production in isolated regulated secretory vesicles", "setting": "[5]", "value": "inhibited"}, {"measurement": "inhibition of Z-Val-Lys-Met-MCA cleaving activity of cathepsin B", "setting": "[6]", "value": "completely inhibited"}]}, {"smiles": "CC(C)C[C@H](NC(=O)[C@@H](NC(=O)[C@@H](N)CNC(=O)c1nn[nH]n1)C(C)C)C(=O)N[C@@H](Cc1ccccc1)[C@@H](O)C(=O)Nc1cc(C(=O)O)cc(C(=O)O)c1", "note": "[KMI-429]", "values": [{"measurement": "maximum reduction in brain Aβ", "setting": "[7]", "value": "30-40%"}]}, {"smiles": "CC(=O)NCCCCC(C=O)NC(=O)C(CSC(=O)OCc1ccccc1)NC(=O)OCc1ccccc1", "note": "(stereo not shown) [Z-C(Z)K(Ac)-ald] (Cbz-Cys(Cbz)-Lys(Ac)-aldehyde; configuration not given here)", "values": [{"measurement": "IC50", "setting": "[8]", "value": 0.091, "unit": "µM"}]}, {"smiles": "O=CC(CO)NC(=O)C(CSC(=O)OCc1ccccc1)NC(=O)OCc1ccccc1", "note": "(stereo not shown) [Z-C(Z)S-ald] (Cbz-Cys(Cbz)-Ser-aldehyde; configuration not given here)", "values": [{"measurement": "IC50", "setting": "[8]", "value": 0.067, "unit": "µM"}]}, {"smiles": "O=CC(CO)NC(=O)C(CCC(=O)NC(c1ccccc1)(c1ccccc1)c1ccccc1)NC(=O)OCc1ccccc1", "note": "(stereo not shown) [Z-Q(Trt)S-ald]", "values": [{"measurement": "IC50", "setting": "[8]", "value": 0.058, "unit": "µM"}]}, {"smiles": "CC(=O)NCCCCC(C=O)NC(=O)C(NC(=O)OCc1ccccc1)C(C)C", "note": "(stereo not shown) [Z-VK(Ac)-ald]", "values": [{"measurement": "IC50", "setting": "[8]", "value": 0.031, "unit": "µM"}]}, {"smiles": "O=CC(CO)NC(=O)C(Cc1ccc(O)cc1)NC(=O)OCc1ccccc1", "note": "(stereo not drawn) [Z-YS-ald] (Cbz-Tyr-Ser-aldehyde; configuration not given here)", "values": [{"measurement": "IC50", "setting": "[8]", "value": 0.037, "unit": "µM"}]}, {"smiles": "CC(C)C(C=O)NC(=O)C(Cc1ccc(O)cc1)NC(=O)OCc1ccccc1", "note": "(stereo not drawn) [Z-YV-ald] (Cbz-Tyr-Val-aldehyde; configuration not given here)", "values": [{"measurement": "IC50", "setting": "[8]", "value": 0.065, "unit": "µM"}]}]}
